Like-named read-outs stand apart in the source and are kept apart here. One block for each compound: values may come before it.
Assays:
HCT-116 = assay: CCK8 proliferation inhibition, HCT-116; format: cell-based; conditions: Homo sapiens, 192 h, CCK8, 8 days after drug treatment
Description: (§1) The above normally growing cells were digested with a cell trypsinization solution, centrifuged, counted, and seeded into a 96-well plate at an appropriate cell density (2000 cells/well) at 100 µL/well. The next day after cell seeding, the compounds at different concentrations were added to the wells. Three replicate wells were set for each concentration point, and a corresponding DMSO negative control group was also set. CCK8 solution was added to each well 8 days after drug treatment. The plate was incubated at 37 °C for a period of time (OD450 of the vehicle group reached 1.0 or higher) before the absorbance at 450 nm was read using a microplate reader. The inhibition rates were calculated, and the EC50 values were determined by fitting using the GraphPad Prism 7.0 software. Table 2. EC50 values of compounds at cellular level

HCT-116-MTAP^-/- = assay: CCK8 proliferation inhibition, HCT-116-MTAP^-/-; format: cell-based; conditions: Homo sapiens, 192 h; HCT-116-MTAP^-/- (MTAP-deficient); CCK8, 8 days after drug treatment
Description: as §1

A549 = assay: CCK8 proliferation inhibition, A549; format: cell-based; conditions: Homo sapiens, 192 h, CCK8, 8 days after drug treatment
Description: as §1

SDMA [1] = assay: SDMA Inhibition Assay in HCT-116 cells; format: cell-based; conditions: Homo sapiens, HCT-116, 96 hours
Description: (§2) The next day, the cells were treated with the compounds at different concentrations (with an initial concentration of 10 µM, 5-fold dilution, 9 concentration gradients). After 96 hours, the culture medium was pipetted out and the cells were washed 2 times with 100 µL of PBS. The cells were then fixed with 4% paraformaldehyde and incubated at room temperature for 20 min. The fixative solution was discarded, and the cells were washed with PBS. 150 µL of specialized blocking solution (containing 1% Triton-100) was added to each well for blocking at room temperature for 2 hours, and the plate was washed with PBS to remove excess blocking solution. […] The cells were incubated at 4 °C overnight. The next day, the cells were separately washed 2 times with 1× PBST. […] The cells were incubated at room temperature for 2 hours. The cells were washed 2 times with 1× PBST and 1 time with PBS. Fluorescence signals at 700 nm and 800 nm were separately detected using a Li-COR Odyssey two-color near-infrared laser imager. The inhibition rates were calculated, and the EC50 values were determined by fitting using the GraphPad Prism 7.0 software. Table 3. Inhibition of SDMA by test compounds

SDMA [2] = assay: SDMA Inhibition Assay in HCT-116-MTAP^-/- cells; format: cell-based; conditions: Homo sapiens, 96 hours
Description: as §2

SDMA [3] = assay: SDMA Inhibition Assay in A549 cells; format: cell-based; conditions: Homo sapiens, A549, 96 hours
Description: as §2

NCI-H838 cells = assay: Pharmacodynamic study, NCI-H838 subcutaneous xenograft; format: in vivo, mouse
Description: (§3) Human non-small cell lung cancer NCI-H838 cells were cultured in monolayer in vitro using the McCoy 5A culture medium (HyClone) containing 10% fetal bovine serum (BI) and 1% penicillin and streptomycin (Beyotime) in an incubator at 37 °C with 5% CO2. The cells were digested with trypsin 2 to 3 times weekly for passaging. When the saturation degree of the cells was 80% to 90%, the cells were collected, counted, and inoculated. 5 × 10^6 (0.1 mL) NCI-H838 cells were subcutaneously inoculated on the right back of each mouse. On about day 29 after inoculation of the cells, the mean tumor volume reached 156 mm^3. The mice were randomly grouped for administration (the animals were divided into an administration group and a control group, with 6 animals in each group). The day of grouping was designated as d0, and intragastric administration was started on d1. The administration was performed once daily at an administration volume of 10 mL/kg. Vehicle control was administered to the control group. The tumor volume was measured 2 to 3 times weekly, and meanwhile, the mice were weighed and the data were recorded; daily observations were made to record the body surface signs of the mice. After the experiment was completed, the tumors were collected, weighed, and photographed for recording.
(§4) Calculation formula for tumor volume: Tumor volume (mm^3) = 1/2 × (a×b^2) [formula] (note: a represents long diameter and b represents short diameter) [formula]

CYP450 3A4 = target: T1, CYP450 3A4 (Homo sapiens, UniProt P08684); assay: Inhibition of human liver microsome CYP450 enzyme 3A4; format: in vitro ADME; conditions: human, microsomes, pH 7.4
T1 construct: from tissue; host or cells: human liver microsomes
Description: 100 mM K-Buffer: 9.5 mL of stock solution A was mixed with 40.5 mL of stock solution B, the total volume was adjusted to 500 mL with ultrapure water, and the buffer was titrated to pH 7.4 with KOH or H3PO4. • Starting material A (1 M potassium dihydrogen phosphate): 136.5 g of potassium dihydrogen phosphate in 1 L of water; • Stock solution B ([…]): 174.2 g of potassium dihydrogen phosphate in 1 L of water.
The test substance powder was prepared into a stock solution at a certain concentration with DMSO or another organic solvent, which was then further diluted with a suitable organic solvent.
The liver microsomal in vitro incubation system for the CYP450 enzyme metabolism phenotype study was a biochemical reaction of the prepared liver microsomes supplemented with a redox coenzyme and an enzyme-specific selective inhibitor under simulated physiological temperature and physiological environment conditions.
The concentration of the parent drug or a metabolite thereof in the incubation solution was determined by LC-MS/MS. and the IC50 value was calculated.

PRMT5 = PRMT5 (Homo sapiens, UniProt O14744); assay: Inhibitory activity against enzymatic activity of PRMT5 (fluorescence polarization); format: biochemical; conditions: PRMT5 25 nM, SAM 1 µM, polypeptide 1 µM, MTA 2 µM; 37 °C 2 hours
Description: The compounds were prepared into 10 mM stock solutions using DMSO, and then 9 concentration gradients (with an initial concentration of 10 µM followed by 1:5 dilution) were prepared using a buffer (50 mM Tris-HCl pH 8.5, 5 mM MgCl2, 4 mM DTT, 0.01% Triton X-100, 0.1 M NaCl, 0.5% DMSO), and each well received 5 µL of the diluted compound solutions. SAM, a polypeptide, and MTA were prepared using a buffer to final concentrations of 1 µM, 1 µM, and 2 µM, respectively, and were added to each well in a total of 5 µL. Meanwhile, an MTA-free group was set as a control. […] Subsequently, a mixture of 2.5 µL of stop buffer A, 2.5 µL of an 8× MT assay mixture (final concentration: 1×), and 24 µg/mL AMP2/GMP2 antibodies (final concentration: 3 µg/mL) was added. The resulting mixture was incubated at room temperature for 1.5 hours, and fluorescence polarization (FP) was measured (Ex 633, Em 647). Meanwhile, negative control wells without protein (Blank) and positive control wells without compound (DMSO) were set. Each experiment was independently repeated three times.
Data processing: The numerical values of each group were recorded for statistical analysis, and the inhibition rate was calculated according to the following formula: inhibition percentage of compound wells (% inh) = [1 - (ave Blank - Cpd well)/(ave Blank - ave DMSO control)] × 100. Note: ave represents the average value, and Cpd represents the numerical value of the wells containing the compound. A sigmoidal dose-inhibition rate curve was plotted and fitted using a nonlinear regression model in the GraphPad Prism 7.0 software, and the IC50 value was calculated. Table 1. Inhibitory activity of compounds against enzymatic activity of PRMT5

[4] = Pharmacokinetic assay in mice; format: in vivo, Balb/c mice; conditions: mouse; for MRT inf: read-out: MRT(0-∞)
Description: Eighteen male Balb/c mice aged 6 to 8 weeks were randomly divided into 2 groups (IV group and PO group). The corresponding compounds were administered to the animals in the IV group by tail intravenous injection at 2 mg/kg, and the corresponding compounds were administered to the animals in the PO group by oral gavage at 10 mg/kg or 100 mg/kg. The animals in the IV group were allowed free access to food and water, and the animals in the PO group were fasted overnight before administration and were fed 4 h after administration. Throughout the experiment, the animals were allowed free access to water. Plasma samples were separately collected at 0.083 h (only group IV), 0.25 h, 0.5 h, 1 h, 2 h, 4 h, 8 h, and 24 h after administration. About 100 µL of blood was collected from the orbit of the animal, placed into a 1.5 mL anticoagulation centrifuge tube, and centrifuged at 8000 rpm and 4 °C for 10 min. The upper plasma sample was transferred to an EP tube. The plasma samples were stored in a refrigerator at -80 °C until sample analysis. Pharmacokinetic parameters of the drug were calculated based on the drug concentration-time data, including the peak concentration Cmax, peak time Tmax, clearance rate CL, steady state apparent volume of distribution Vss, area under drug-time curve AUC, elimination half-life t1/2, bioavailability, and the like. Data below the 80% lower limit of quantification were excluded from the calculation of pharmacokinetic parameters.

HCT-116-MTAP^-/- cells = assay: Pharmacodynamic study, HCT-116-MTAP^-/- subcutaneous xenograft; format: in vivo, mouse; conditions: HCT-116-MTAP^-/- xenograft, 60 mpk PO QD
Description: as §3, with “Human colon” for “Human non-small cell lung”, “cancer HCT-116-MTAP^-1-” for “cancer NCI-H838”, “mL) HCT-116-MTAP^-/-” for “mL) NCI-H838”, “day 15” for “day 29”, “reached 172” for “reached 156”
as §4

[5] = male, Balb/c, plasma, 2 mg/kg, IV 2mpk
[6] = male, Balb/c, plasma, 10 mg/kg, PO 10mpk

Sequence of PRMT5 (O14744 whole entry): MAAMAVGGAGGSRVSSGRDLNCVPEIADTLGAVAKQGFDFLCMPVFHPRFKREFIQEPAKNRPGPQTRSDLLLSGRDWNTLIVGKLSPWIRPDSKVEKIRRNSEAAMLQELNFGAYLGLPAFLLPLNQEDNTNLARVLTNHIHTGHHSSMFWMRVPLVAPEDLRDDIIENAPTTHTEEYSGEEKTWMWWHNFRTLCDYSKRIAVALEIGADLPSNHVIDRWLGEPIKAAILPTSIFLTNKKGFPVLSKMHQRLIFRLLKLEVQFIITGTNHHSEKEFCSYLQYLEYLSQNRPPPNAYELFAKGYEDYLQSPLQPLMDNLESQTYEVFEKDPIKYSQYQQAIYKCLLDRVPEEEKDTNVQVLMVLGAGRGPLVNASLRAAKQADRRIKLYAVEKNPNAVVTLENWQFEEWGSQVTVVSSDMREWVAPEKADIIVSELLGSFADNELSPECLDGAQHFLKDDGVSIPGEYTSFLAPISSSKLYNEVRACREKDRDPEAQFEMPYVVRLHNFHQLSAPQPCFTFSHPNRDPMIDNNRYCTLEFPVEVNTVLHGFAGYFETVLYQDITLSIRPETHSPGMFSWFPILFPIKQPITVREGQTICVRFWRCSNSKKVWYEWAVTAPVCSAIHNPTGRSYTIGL
Sequence of PRMT5 (Q9BQA1 whole entry partner): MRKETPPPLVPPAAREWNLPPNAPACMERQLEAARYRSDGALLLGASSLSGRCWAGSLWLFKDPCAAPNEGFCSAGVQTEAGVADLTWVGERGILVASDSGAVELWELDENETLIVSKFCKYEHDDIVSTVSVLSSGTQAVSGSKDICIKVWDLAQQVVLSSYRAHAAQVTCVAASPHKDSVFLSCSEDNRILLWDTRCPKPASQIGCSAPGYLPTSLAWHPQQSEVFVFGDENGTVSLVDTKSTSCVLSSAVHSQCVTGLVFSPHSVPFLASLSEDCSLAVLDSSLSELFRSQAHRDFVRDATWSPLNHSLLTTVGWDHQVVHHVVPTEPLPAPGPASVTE
T1 sequence (P08684 whole entry): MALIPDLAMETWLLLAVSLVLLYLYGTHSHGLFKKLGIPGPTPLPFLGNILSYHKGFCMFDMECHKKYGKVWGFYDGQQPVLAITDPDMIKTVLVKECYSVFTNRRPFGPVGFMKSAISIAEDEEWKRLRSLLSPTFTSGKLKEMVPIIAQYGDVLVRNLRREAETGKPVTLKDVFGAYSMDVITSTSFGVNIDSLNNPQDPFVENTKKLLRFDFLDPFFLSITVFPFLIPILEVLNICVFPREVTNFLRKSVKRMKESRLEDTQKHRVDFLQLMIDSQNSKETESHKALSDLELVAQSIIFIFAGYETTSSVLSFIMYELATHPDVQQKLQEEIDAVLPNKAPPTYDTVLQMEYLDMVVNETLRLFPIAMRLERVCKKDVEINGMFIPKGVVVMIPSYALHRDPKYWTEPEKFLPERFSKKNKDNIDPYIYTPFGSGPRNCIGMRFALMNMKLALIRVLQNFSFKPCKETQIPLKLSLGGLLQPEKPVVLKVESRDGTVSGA

SMILES: Cn1ncc2c(N)nc3cnc(C(=O)N(Cc4ccc5c(c4)OC(F)(F)O5)C4CC4)cc3c21 [Example I-37]
EC50 (HCT-116): 545 nM
EC50 (HCT-116-MTAP^-/-): 10.1 nM
EC50 (A549): 72.7 nM
EC50 (SDMA [1]): 205 nM
EC50 (SDMA [2]): 1.9 nM
EC50 (SDMA [3]): 2.7 nM
Day 31 TGI (NCI-H838 cells; 10 mpk PO QD): 58%
Day 31 TGI (NCI-H838 cells; 30 mpk PO QD): 71%
Day 31 TGI (NCI-H838 cells; 100 mpk PO QD): 104%
IC50 (CYP450 3A4): > 10000 nM

IC50 (PRMT5): 48.5 nM
EC50 (HCT-116): 3230 nM
EC50 (HCT-116-MTAP^-/-): 4.2 nM
EC50 (A549): 41.8 nM
EC50 (SDMA [1]): 220 nM
EC50 (SDMA [2]): 1.5 nM
EC50 (SDMA [3]): 1.4 nM
AUC(0-inf) [4, 5]: 5.69 µM·h
AUC(0-t) [4, 5]: 5.45 µM·h
C0 [4, 5]: 3.52 µM
MRT inf [4, 5]: 2.3 h
Vd ([4]; male, Balb/c, plasma, 2 mg/kg, IV 2mpk, read-out: Vz): 2 L/kg
AUC(0-inf) [4, 6]: 18.4 µM·h
AUC(0-t) [4, 6]: 18.1 µM·h
Cmax [4, 6]: 3.24 µM
Tmax [4, 6]: 1 h
MRT inf [4, 6]: 5.5 h
CLz ([4]; IV 2mpk): 13 mL/min/kg
R_AUC(t/∞) ([4]; IV 2mpk): 95.8%
t1/2z ([4]; IV 2mpk): 1.8 h
R_AUC(t/∞) ([4]; PO 10mpk): 98.3%
t1/2z ([4]; PO 10mpk): 4.1 h
F ([4]; PO 10mpk vs IV 2mpk): 64.7%
SMILES: CN(Cc1ccc2c(c1)OC(F)(F)O2)C(=O)c1cc2c(cc1F)nc(N)c1cnn(C)c12 [Example I-1]
Day 28 TGI (HCT-116-MTAP^-/- cells): 85%
